# Test results from patent publication US7402402B2, “P38 MAPK pathway predicts endocrine-resistant growth of human breast cancer and provides a novel diagnostic and treatment target” (Baylor College of Medicine, priority 2001, dated 2008).
# Columns and labels:
# p38β = p38β (Homo sapiens, UniProt Q15759); assay: In vitro kinase assay of Example 3: p38β-induced phosphorylation of ER; format: biochemical; details: ERα and ERβ substrates
# p38 MAPK [1] = assay: In vitro phosphorylation of Xenopus oocyte-expressed AIB1 by p38 MAPK; format: biochemical; details: Xenopus oocyte-expressed AIB1, FIG. 4 lane 4
# p38 MAPK [2] = details: baculovirus-expressed ERα, FIG. 3A
# [3] = test system: ER-positive MCF-7 human breast cancer cells; details: literature (Osborne et al., 1995), cited from earlier work
# [4] = test system: ER-positive MCF-7 human breast cancer cells; assay: MCF-7 human breast cancer xenografts in athymic nude mice, tumor volume; format: in vivo; details: wild type MCF-7 xenografts, treatment from day 17, FIG. 2A; growth eventually resumes (Tam^R)
# Description: The present inventors have developed an in vivo experimental model of tamoxifen resistance and resistance to estrogen deprivation in which ER-positive MCF-7 human breast cancer cells are inoculated subcutaneously into athymic nude mice [Osborne et al., 1987, Eur J Cancer Clin Oncol. 23(8):1189-1196; Osborne et al., 1991, J Natl Cancer Inst. 83(20):1477-1482]. […] This sequence of events is similar to that which occurs in patients. […] Since certain metabolites of tamoxifen have estrogenic properties, pharmacologic explanations for this tamoxifen-stimulated growth were investigated first.
# ER-positive MCF-7 human breast cancer cells were grown as xenografts in athymic nude mice as described previously [Osborne et al., 1987, Eur J Cancer Clin Oncol. 23(8):1189-1196; Osborne et al., 1991, J Natl Cancer Inst. 83(20):1477-1482; Osborne et al., 1995, J Natl Cancer Inst 87:746-750]. Day 0 was the day of transplantation conducted and the day estrogen treatment began. These mice were treated with estrogen withdrawal (−E2) or tamoxifen (Tam) beginning on day 17. Tumor volume was measure every four days.
# Chain of p38β (Q15759 whole entry): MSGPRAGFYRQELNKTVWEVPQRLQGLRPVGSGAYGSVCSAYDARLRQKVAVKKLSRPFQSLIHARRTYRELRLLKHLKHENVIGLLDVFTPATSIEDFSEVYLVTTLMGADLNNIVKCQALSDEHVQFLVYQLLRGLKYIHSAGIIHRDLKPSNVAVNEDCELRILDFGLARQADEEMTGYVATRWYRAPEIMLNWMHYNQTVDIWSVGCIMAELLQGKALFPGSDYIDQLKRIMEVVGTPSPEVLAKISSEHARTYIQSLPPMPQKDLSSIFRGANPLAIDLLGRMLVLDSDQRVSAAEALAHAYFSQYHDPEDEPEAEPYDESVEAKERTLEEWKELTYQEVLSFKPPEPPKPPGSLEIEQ
smiles,measurement,setting,value
C[S+]([O-])c1ccc(-c2nc(-c3ccncc3)c(-c3ccc(F)cc3)[nH]2)cc1 (stereo not drawn) [SB 203580],p38β-induced phosphorylation of ER,p38β,can be inhibited
same,AIB1 phosphorylation by p38 MAPK,p38 MAPK [1],inhibits AIBI phosphorylation
same,phosphorylation of ERα by p38 MAP kinase in the presence of inhibitor,p38 MAPK [2],inhibited
"C[C@]12CC[C@@H]3c4ccc(O)cc4C[C@@H](CCCCCCCCC[S+]([O-])CCCC(F)(F)C(F)(F)F)[C@H]3[C@@H]1CC[C@@H]2O (stereo partly drawn) [ICI 182,780]",growth of −E2^R and Tam^R resistant tumors,[3]; resistant xenograft tumors,can still be inhibited
CC/C(=C(\c1ccccc1)c1ccc(OCCN(C)C)cc1)c1ccccc1 [tamoxifen],xenografted tumor growth (tumor volume over time),[4],suppresses tumor growth for several months
same,tumor growth in MCF-7 xenograft model,[3]; tumor growth later resumes despite continued treatment,suppresses tumor growth for several months
